Key:
[1] = tested on: glucose-stimulated insulin release; assay: Inhibition of glucose-stimulated insulin release (NN-414 versus diazoxide); format: cell-based
hamster SUR1 = target: T1, hamster SUR1 (Cricetus cricetus, UniProt Q09427); assay: Competitive binding to sulfonylurea and KCO sites of SUR1 ([3H]glibenclamide displacement, COS-cell membranes); details: SUR1 versus SUR2 selectivity, in words
T1 construct: expressed in transfected cells; host or cells: COS-1 cells, transient transfection (pcDNA vector), membrane preparation
Experimental: Competitive binding experiments were performed to characterize the affinity of the test compounds for the binding sites for sulfonylureas and KATP channel openers (=KCOs) on hamster SUR1. To assess the affinity for the sulfonylurea site membranes from COS-cells transiently expressing hamster SUR1 were incubated in the presence of [^3H]glibenclamide with increasing concentrations of test compounds. […] Per curve 9-15 distinct concentrations were tested covering the relevant range. All measurements were repeated at least 5 times in independent experiments.
[^3H]glibenclamide (specific activity 51 Ci mmol^−1) was obtained from NEN (Dreieich, Germany). If suitable, stock solutions were prepared in dimethylsulfoxide with a final solvent concentration in the media below 1%.
SUR- or Kir6.x isoforms were used either subcloned in the pcDNA (hamster SUR1, mouse Kir6.2) or pCMV vector (rat SUR2A, SUR2B).
For transfection the cells were incubated 4 hours in a Tris-buffered salt solution containing DNA (5-10 μg/ml) plus DEAE-dextran (1 mg/ml), 2 min in HEPES-buffered salt solution plus dimethylsulfoxide (10%) and 4 hours in DMEM-HG plus chloroquine (100 μM). Cells were then returned to DMEM-HG plus 10% FCS. […] For binding experiments resuspended membranes (final protein concentration 5-50 μg/ml) were incubated in “Tris-buffer” (50 mM, pH 7.4) containing either [^3H]glibenclamide (final concentration 0.3 nM or 3 nM and nonspecific binding defined by 100 nM or 1 μM glibenclamide for SUR1 or SUR2Y1205S-isoforms, respectively) or [^3H]P1075 (final concentration 3 nM, nonspecific binding defined by 100 μM pinacidil) and increasing concentrations of the test compounds. […] Incubations were carried out for 1 h at room temperature and were terminated by rapid filtration through Whatman GF/B filters.
The inhibition constant (Ki value) of the test substances was calculated from the respective IC50 value, and was stated as the negative logarithmised value thereof (pKi).

[2] = tested on: rat perifused pancreatic islets; assay: Insulin secretion in rat perifused pancreatic islets, simple screen at 11 mM glucose; format: cell-based; details: for effect on insulin secretion: 0-30 and 30-60 min
Experimental: Animals: Male Wistar rats in the weight range 175-200 g were group housed in standard animal cages at a temperature of 21±2° C. and humidity of 55±10%. Animals were maintained on a 12 h light-dark cycle (lights on 06.00-18.00 h) with free access to standard rodent diet (B&K Universal Ltd standard rat and mouse diet (BK 001P), Beekay Feeds, B&K Universal Ltd, Hull, East Riding of Yorkshire) and tap water. The rats were accustomed to these conditions for at least one week before experimentation.
(§1) Experimental procedures: After the rats were sacrificed, the branch of the bile duct leading to the liver and the duodenal end of the duct in the pancreas were clamped and the pancreas distended by injection of ice-cold 0.9 mg/ml collagenase solution into the bile duct. The pancreas were then removed and incubated statically for 10-12 min at 37° C. Following the incubation, 10 ml of cold buffer was added and the suspension shaken vigorously by hand for 1 min. The islets were allowed to settle for 5 min on ice and washed three times using ice-cold buffer. Well formed and good sized islets from 3 rats were hand-picked (under a low power microscope) and pooled and a final selection of islet transferred to the perifusion apparatus. Oxygenated (95% O2/5% CO2) Gey & Gey buffer containing 1 mg/ml bovine serum albumin and 4 mM glucose were used throughout the experiment unless otherwise stated (see Dickinson et al. Eur J Pharmacol 1997;339:69-76 for further details).
(§2) On each day, two experiments were performed in parallel in 2 identical, independent sets of perifusion apparatus each consisting of sufficient number of chambers. Each chamber was loaded with 20 hand-picked islets. Islets were perifused for an initial 30 min period in media containing 4 mM glucose. Perifusate was then collected at 2 min intervals for the remainder of the experiment.
Perifusate samples were then pooled to create 3 samples per chamber as follows: Baseline (4 mM): Samples 1-5 (first 10 minutes); 0-30 minutes (11 mM glucose): Samples 6-21; 30-60 minutes (11 mM glucose): Samples 22-36.
Perifusate fractions were stored at −75° C. until required for insulin assay. Insulin content of fractions were assayed using a 96-well ELISA assay (Mercodia). Initial insulin assays were performed in triplicate on three pooled fractions from each chamber (18 samples per experiment, 108 samples in total for 6 experiments).

[3] = tested on: rat perifused pancreatic islets; assay: Insulin secretion in rat perifused pancreatic islets, in depth investigation (Phase 1 and Phase 2); format: cell-based
Experimental: Animals: Male Wistar rats in the weight range 175-200 g were group housed in standard animal cages at a temperature of 21±2° C. and humidity of 55±10%. Animals were maintained on a 12 h light-dark cycle (lights on 06.00-18.00 h) with free access to standard rodent diet (B&K Universal Ltd standard rat and mouse diet (BK 001 P), Beekay Feeds, B&K Universal Ltd, Hull, East Riding of Yorkshire) and tap water. The rats were accustomed to these conditions for at least one week before experimentation.
as §1, with “procedures: Three rats (sufficient for” for “procedures: After”, “the isolation of enough islets to allow for 2 perifusion experiments per day)” for “the rats”
as §2, with “was” for “was then”, “experiment. After the first 10 min of the experiment (to collect baseline insulin values), the media in each chamber were switched to one containing the relevant drug concentration/vehicle/glucose concentration and perifusate collected for a further 62 min to produce a total of 36 fractions for each chamber.” for “experiment.”
Experiments were organised to evaluate firstly (Phase I) the effect of Compounds at a single concentration on glucose-stimulated insulin secretion (two independent sets of experiments) and secondly (Phase II), determination of the dose-dependent effect of these compounds to inhibit insulin secretion at 11 mM glucose (three independent sets of experiments).
Perifusate fractions were stored at −75° C. until required for insulin assay. Insulin content of fractions were assayed using a 96-well ELISA assay (Mercodia). Initial insulin assays were performed on only every third fraction (72 assays per experiment).

[4] = tested on: male sugar rats [Ico: ZUCKER-fa/fa (fatty)]; assay: 2 week chronic administration: body weight gain in male sugar rats (ZUCKER-fa/fa); format: in vivo, rat; details: for decrease of body weight in comparison to vehicle-treated rats: day 14
Experimental: Studies were performed in male sugar rats [[Ico: ZUCKER-fa/fa (fatty) (Orl] (Charles River France) weighing initially 400 to 490 g. Animals were housed two or three in a plastic cage in a temperature (20-24° C.), relative humidity (45-65%) and 12-h light/dark cycle (light 7:00 a.m. to 7:00 p.m.)—controlled room for 6 days before being used. All animals had free access to filtered tap water and standard pelleted laboratory chow (U.A.R., Villemois-son-sur-Orge, France). Animals were individually identified on the tail.
At the end of the acclimatization period, animals were individually housed in wire-topped plastic cages. A pre-weighed quantity of food and water were placed on the roof grids. Each rat was acclimated to the handling and dosing procedure the 3 days preceding the start of treatment. Water and food intake was measured during the 24 h that followed dosing procedure to establish baseline food and water intake for each animal. Thereafter, the rats were randomly assigned to either vehicle or drug treatment groups.
Between 9:00-10:00 a.m. on the day of study, the animals were injected p.o. with either vehicle or differing doses of test compounds in a volume of 2 ml/kg each day for 14 consecutive days. During the 5-day post-treatment period, vehicle was given to all groups.
Daily food and water intake was determined per cage throughout the 14-day treatment period and the 5-day post-treatment period. Individual body weights were checked daily for the subsequent treatment and post-treatment periods. Data were collected before each dosing procedure.

T1 sequence (Q09427 whole entry): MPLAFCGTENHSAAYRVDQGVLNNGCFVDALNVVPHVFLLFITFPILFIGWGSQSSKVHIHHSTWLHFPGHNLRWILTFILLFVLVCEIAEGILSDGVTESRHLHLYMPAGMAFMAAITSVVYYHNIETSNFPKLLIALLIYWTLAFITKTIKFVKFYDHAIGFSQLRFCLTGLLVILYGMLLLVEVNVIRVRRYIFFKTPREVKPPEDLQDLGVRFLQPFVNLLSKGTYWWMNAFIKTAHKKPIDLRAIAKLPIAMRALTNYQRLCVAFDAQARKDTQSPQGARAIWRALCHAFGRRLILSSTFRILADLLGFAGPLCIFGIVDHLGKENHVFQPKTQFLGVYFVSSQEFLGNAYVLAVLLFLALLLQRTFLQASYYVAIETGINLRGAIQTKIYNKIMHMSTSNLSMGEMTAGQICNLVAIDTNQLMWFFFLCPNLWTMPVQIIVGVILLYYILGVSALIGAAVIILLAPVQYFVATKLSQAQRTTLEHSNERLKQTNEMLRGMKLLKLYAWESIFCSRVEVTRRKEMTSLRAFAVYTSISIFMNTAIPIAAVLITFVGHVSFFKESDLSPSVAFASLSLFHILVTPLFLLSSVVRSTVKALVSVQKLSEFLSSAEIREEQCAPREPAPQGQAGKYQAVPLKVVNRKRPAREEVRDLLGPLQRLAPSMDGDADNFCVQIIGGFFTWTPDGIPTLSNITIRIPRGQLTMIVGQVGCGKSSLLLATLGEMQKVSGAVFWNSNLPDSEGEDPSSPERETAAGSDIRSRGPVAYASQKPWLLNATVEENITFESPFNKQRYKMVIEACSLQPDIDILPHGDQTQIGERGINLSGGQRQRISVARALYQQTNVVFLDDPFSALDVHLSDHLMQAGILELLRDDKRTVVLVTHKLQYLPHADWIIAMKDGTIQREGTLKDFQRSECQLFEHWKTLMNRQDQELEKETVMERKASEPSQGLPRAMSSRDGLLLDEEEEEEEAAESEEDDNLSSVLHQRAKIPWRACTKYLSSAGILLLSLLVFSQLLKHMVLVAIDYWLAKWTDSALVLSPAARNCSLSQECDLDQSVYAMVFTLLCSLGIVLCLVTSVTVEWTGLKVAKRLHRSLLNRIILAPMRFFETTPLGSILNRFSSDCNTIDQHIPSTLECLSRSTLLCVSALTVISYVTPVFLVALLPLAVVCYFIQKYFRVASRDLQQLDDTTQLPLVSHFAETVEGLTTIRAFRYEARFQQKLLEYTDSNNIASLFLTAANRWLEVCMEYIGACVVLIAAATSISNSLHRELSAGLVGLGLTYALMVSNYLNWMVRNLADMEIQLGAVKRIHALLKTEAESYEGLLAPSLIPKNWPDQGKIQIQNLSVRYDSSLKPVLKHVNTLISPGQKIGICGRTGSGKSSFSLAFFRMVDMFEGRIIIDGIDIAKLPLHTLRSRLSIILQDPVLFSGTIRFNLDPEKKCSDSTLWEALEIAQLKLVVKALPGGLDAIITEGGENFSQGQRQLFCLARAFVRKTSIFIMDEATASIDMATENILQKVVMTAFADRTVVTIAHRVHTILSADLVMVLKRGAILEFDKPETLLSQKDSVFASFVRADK

CC1(NC2=Nc3cc(Cl)sc3S(=O)(=O)N2)CC1 [NN-414]
potency to inhibit glucose-stimulated insulin release relative to diazoxide [1]: 100 times

CNC(=NS(=O)(=O)c1ccc(C(F)(F)F)cc1)N1CC(c2cccnc2)C(c2ccc(Cl)cc2)=N1 (stereo not drawn) [Compound 4, 3-(4-chlorophenyl)-N-methyl-4-pyridin-3-yl-N′-{[4-(trifluoromethyl)phenyl]sulfonyl}-4,5-dihydro-1H-pyrazole-1-carboximidamide]
pki (SUR1) compared with pki (SUR2) (hamster SUR1): pki (SUR1) larger than pki (SUR2) | amount of inhibition of insulin secretion compared with diazoxide [2]: notably greater than diazoxide at 30-60 min | effect on insulin secretion [2]: significantly inhibited insulin secretion at both 0-30 and 30-60 min

CNC(=NS(=O)(=O)N1CCCCC1)N1C[C@H](c2ccccc2)C(c2ccc(Cl)cc2)=N1 [Compound 3, (4S)-3-(4-chlorophenyl)-N-methyl-4-phenyl-N′-(piperidin-1-ylsulfonyl)-4,5-dihydro-1H-pyrazole-1-carboximidamide]
amount of inhibition of insulin secretion compared with diazoxide [2]: notably greater than diazoxide at 30-60 min | effect on insulin secretion [2]: significantly inhibited insulin secretion at both 0-30 and 30-60 min

CN[C@@H](Cc1c[nH]c2ccccc12)C(=O)N1CC(c2ccccc2)C(c2ccc(Cl)cc2)=N1 (stereo partly drawn) [Compound 1, (2S)-1-[3-(4-chlorophenyl)-4-phenyl-4,5-dihydro-1H-pyrazol-1-yl]-3-(1H-indol-3-yl)-N-methyl-1-oxopropan-2-amine]
pki (SUR1) compared with pki (SUR2) (hamster SUR1): pki (SUR1) larger than pki (SUR2) | effect on insulin secretion [2]: significantly inhibited insulin secretion

CNC(=NS(=O)(=O)c1ccc(Cl)cc1)N1C[C@H](c2ccccc2)C(c2ccc(Cl)cc2)=N1 [Compound A, (4S)-3-(4-chlorophenyl)-N′-[(4-chlorophenyl)sulfonyl]-N-methyl-4-phenyl-4,5-dihydro-1H-pyrazole-1-carboximidamide]
pki (SUR1) compared with pki (SUR2) (hamster SUR1): pki (SUR1) larger than pki (SUR2) | effect on insulin secretion at 4 mM glucose ([3]; Phase 1, 10 μM, 4 mM glucose): no effect of compound A on insulin secretion at 4 mM glucose in two experiments and a slight effect to stimulate insulin secretion in one experiment | effect on insulin secretion at 8 mM glucose ([3]; Phase 1, 10 μM, 8 mM glucose): completely inhibited insulin secretion at 8 mM glucose in two of the experiments and moderately inhibited insulin secretion in the third experiment | effect on insulin secretion at 16 mM glucose ([3]; Phase 1, 10 μM, 16 mM glucose): moderate effect to inhibit insulin secretion in one experiment but only a slight effect in the other experiment | dose dependency of effect on mean insulin secretion ([3]; Phase 2, 11 mM glucose): dose-dependent effects to inhibit mean insulin secretion | doses at which inhibition of mean insulin secretion attained statistical significance ([3]; Phase 2, 11 mM glucose): 3 µM and 10 µM | effect on time-dependent insulin secretion ([3]; Phase 2, 11 mM glucose, 10 μM): clearly more effective than the comparable (10 μM) dose of diazoxide | reduction of mean insulin secretion ([3]; Phase 2, 11 mM glucose, 10 μM): 74% | dose dependency of effect on time-dependent insulin secretion ([3]; Phase 2, 11 mM glucose, four doses): dose-dependent effects to block insulin secretion | decrease of body weight in comparison to vehicle-treated rats ([4]; 3 mg/kg p.o. daily): 5.3% | decrease of body weight in comparison to vehicle-treated rats ([4]; 10 mg/kg p.o. daily): 6.7% | decrease of body weight in comparison to vehicle-treated rats ([4]; 30 mg/kg p.o. daily): 5.9% | effect on body weight during treatment ([4]; 3, 10 and 30 mg/kg p.o., 14 days): sustained non dose-dependent reduction in body weight at all doses administered | body weight on interruption of drug treatment ([4]; 5-day post-treatment period): progressively returned towards control levels

CN(C)CCNC(=NS(=O)(=O)N1CCCCC1)N1CC(c2ccccc2)C(c2ccc(Cl)cc2)=N1 (stereo not drawn) [Compound 2, 3-(4-chlorophenyl)-N-[2-(dimethylamino)ethyl]-4-phenyl-N′-(piperidin-1-ylsulfonyl)-4,5-dihydro-1H-pyrazole-1-carboximidamide]
effect on insulin secretion [2]: significantly inhibited insulin secretion (only at 0-30 min for compound 2)

CC1=NS(=O)(=O)c2cc(Cl)ccc2N1 [Diazoxide, diazoxide, reference compound]
effect on time-dependent insulin secretion ([3]; Phase 2, 11 mM glucose, 10 μM): only a partial inhibition | reduction of mean insulin secretion ([3]; Phase 2, 11 mM glucose, 10 μM): 50% | effect on time-dependent insulin secretion ([3]; Phase 2, 11 mM glucose, 100 μM): almost completely blocked the stimulatory effect of 11 mM glucose | reduction of mean insulin secretion ([3]; Phase 2, 11 mM glucose, 100 μM): 94%
